Reference: ChEMBL document CHEMBL1156829 (Proc Natl Acad Sci U S A, 2008)

Legend:
Plasmodium falciparum [1] = assay: NOVARTIS: Inhibition of Plasmodium falciparum W2 (drug-resistant) proliferation in erythrocyte-based infection assay; format: functional, organism-based; details: Plasmodium falciparum, W2; read-out: EC50
[2] = NOVARTIS: Cytotoxicity against human hepatocellular carcinoma cell line (Huh7); format: toxicity, cell-based, Huh-7; details: Huh7 cells (hepatocellular carcinoma cell line)
Plasmodium falciparum [3] = assay: NOVARTIS: Inhibition of Plasmodium falciparum 3D7 (drug-susceptible) proliferation in erythrocyte-based infection assay; format: functional, organism-based; details: Plasmodium falciparum, 3D7

Row | Compound | EC50 (Plasmodium falciparum [1]) | CC50 [2] | EC50 (Plasmodium falciparum [3])
1 | CCC1CN2CCC1CC2C(O)c1ccnc2ccccc12 (stereo not given) | 627 nM | > 100000 nM | 299 nM
2 | CCNC(=O)N(CCCCOc1ccc(C(C)(C)CC)cc1C(C)(C)CC)Cc1ccc(OC)c(OCc2ccccc2)c1 | 61 nM | > 10000 nM | 595 nM
3 | O=C(Nc1nc(-c2ccccn2)cs1)c1ccc(Oc2ccc(C(=O)Nc3nc(-c4ccccn4)cs3)cc2)cc1 | 602 nM | > 100000 nM | 2240 nM
4 | CC(=C(Cl)Cl)/C(Br)=C(\Br)CO | 59.5 nM | > 10000 nM | 179 nM
5 | CCOC(=O)N1CCN(C(=O)c2ccc(N3CC4CC(C3)c3cccc(=O)n3C4)c(NS(=O)(=O)c3ccc4c(c3)OCCO4)c2)CC1 (stereo not given) | 589 nM | > 100000 nM | 2470 nM
6 | O=C(Nc1ccc(C2=NCCN2)cc1)Nc1cc(C(=O)Nc2ccc(C3=NCCN3)cc2)ccc1C(=O)Nc1ccc(C2=NCCN2)cc1 | 62.9 nM | > 10000 nM | 99.7 nM
7 | O=C(Nc1ccon1)c1cc(-c2cccnc2)nc2ccc(Cl)cc12 | 606 nM | > 100000 nM | 1500 nM
8 | CN(C)CCCNc1ncnc2c1[nH]c1ccc(F)cc12 | 305 nM | 48700 nM | 93.1 nM
9 | Cc1cc(-c2ccc(O)c(CN3CCCCCC3)c2)c2ccccc2n1 | 345 nM | 55900 nM | 1120 nM
10 | CCc1noc(C)c1C(=O)NCCN1Cc2ccccc2OC(c2ccsc2)C1 (stereo not given) | 615 nM | > 100000 nM | 827 nM
11 | CCCN1CCc2c(sc3nc(SC)n(-c4ccccc4)c(=O)c23)C1 | 627 nM | > 100000 nM | 947 nM
12 | COc1ccc(CCNC2(Cc3ccccc3)CC(C)N(C)CC2C)cc1OC (stereo not given) | 268 nM | 42700 nM | 620 nM
13 | CC(=O)N1CCC(N(C(=O)Nc2c(F)cccc2F)C(C)C)CC1 | 625 nM | > 100000 nM | > 12500 nM
14 | COc1cc(C(Nc2ccccn2)c2ccc3cccnc3c2O)cc(Br)c1OC (stereo not given) | 219 nM | > 35000 nM | 368 nM
15 | COc1ccc(C2Nc3ccc([N+](=O)[O-])cc3C3C=CCC32)cc1[N+](=O)[O-] (stereo not given) | 616 nM | > 100000 nM | 1500 nM
16 | CCCCn1c(=N)n(CC(O)c2ccc(Br)cc2)c2ccccc21 (stereo not given) | 141 nM | 22500 nM | 466 nM
17 | CC(=O)N(Cc1ccc(F)cc1)C1=C(NCCc2ccccc2)C(=O)c2ccccc2C1=O | 18.2 nM | 2910 nM | 5.93 nM
18 | O=C(Nc1ccc(O)cc1)c1cccc(S(=O)(=O)N2CCCCC2)c1 | 621 nM | > 100000 nM | 6910 nM
19 | C=CCc1cc(-c2cc(CC=C)c(O)c(CN(CC)CC)c2)cc(CN(CC)CC)c1O | 61.9 nM | > 10000 nM | 273 nM
20 | CCC(CC)CN1CCC(O)(c2ccc3oc(C(=O)Nc4ccc(OC)cc4)cc3c2)CC1 | 617 nM | > 100000 nM | 954 nM
21 | CCCC(c1nnnn1C1CCCCC1)N1CCN(C(=O)c2ccco2)CC1 (stereo not given) | 616 nM | > 100000 nM | 1330 nM
22 | Cc1ccc(-n2c(C)c(C(=O)c3ccccc3)c3cc(O)ccc32)cc1 | 615 nM | > 100000 nM | 508 nM
23 | O=C(Cn1c2ccccc2c(=O)c2ccccc21)Nc1ccc([N+](=O)[O-])c(Br)c1 | 632 nM | > 100000 nM | 1110 nM
24 | O=C(NCc1ccco1)C1CCN(S(=O)(=O)c2ccc(Br)cc2)CC1 | 629 nM | > 100000 nM | 362 nM
25 | O=C(COc1ccccc1)NC(c1ccco1)c1cc(Cl)c2cccnc2c1O (stereo not given) | 589 nM | > 100000 nM | 1490 nM

Row | Compound | EC50 (Plasmodium falciparum [1]) | CC50 [2] | EC50 (Plasmodium falciparum [3])
26 | COc1ccc(Nc2nc(NN=Cc3cccc([N+](=O)[O-])c3OC)nc(Nc3ccc([N+](=O)[O-])cc3)n2)cc1 | 635 nM | > 100000 nM | 221 nM
27 | Cc1cc(Nc2ccc(Br)cc2)n2nc(C)nc2n1 | 595 nM | > 100000 nM | 728 nM
28 | CC(=O)Nc1ccc(NC(=O)C(C)(C)CCl)cc1 | 62.1 nM | > 10500 nM | > 1000 nM
29 | CCOc1ccc(C(=O)Cn2ccc(=NCc3ccccc3)cc2)cc1[N+](=O)[O-] | 121 nM | 20100 nM | 69.7 nM
30 | COc1cccc(C(Nc2cc(C)ccn2)c2ccc3cccnc3c2O)c1 (stereo not given) | 562 nM | > 93500 nM | 1110 nM
31 | COc1ccc(CC2NCC(O)C2OC(C)=O)cc1 (stereo not given) | 48.5 nM | 8110 nM | 36.9 nM
32 | CCOc1ccc(N2C(=O)C3C4CC(C(Br)C4Br)C3C2=O)cc1 (stereo not given) | 441 nM | > 72500 nM | > 12500 nM
33 | CCc1ccc(NC(=O)C2c3ccccc3C(=O)N(CC(C)C)C2c2cccs2)cc1 (stereo not given) | 607 nM | > 100000 nM | 2300 nM
34 | COc1cc(NC(=O)C=Cc2ccccc2Cl)cc(OC)c1OC | 302 nM | 47800 nM | 547 nM
35 | Cc1ccc(C)c(NC(=O)c2c(-c3c(Cl)cccc3Cl)noc2C)c1 | 443 nM | > 70700 nM | 218 nM
36 | COC(=O)C1C(=O)C2=C(CC1C)NC(=O)CC2c1cccc(Cl)c1Cl (stereo not given) | 617 nM | > 100000 nM | 814 nM
37 | O=C1C2C(C(=O)N1c1ccc(Cl)c(C(F)(F)F)c1)C1(c3ccccc3)C(=O)C2(c2ccccc2)C(c2ccccc2)=C1c1ccccc1 (stereo not given) | 616 nM | > 100000 nM | 442 nM
38 | Cc1cc(C)n(CC(O)Cn2c3ccc(Br)cc3c3cc(Br)ccc32)n1 (stereo not given) | 284 nM | 45400 nM | 1040 nM
39 | COC(=O)[C@@H]1C[C@@H](NC(=O)c2ccc(OC)cc2)CN1CC(c1ccccc1)c1ccccc1 | < 25.7 nM | > 4170 nM | 1150 nM
40 | COC(=O)C1=CN(Cc2ccc(OC)cc2)C=C(C(=O)OC)C1c1cccs1 | 602 nM | > 100000 nM | 5640 nM
41 | COc1ccc(Br)cc1CNC(=O)CCCN1C(=O)COc2ccc(C)cc21 | 628 nM | > 100000 nM | 1880 nM
42 | Cc1ccc(C)c(Nc2nc(NCc3ccccc3)c3ccccc3n2)c1 | 90.2 nM | 14500 nM | 246 nM
43 | CCOc1ccc(N(C(=O)C2COc3ccccc3O2)C(C(=O)NC2CCCCC2)c2cn(C)nc2C)cc1 (stereo not given) | 614 nM | > 100000 nM | 443 nM
44 | N#Cc1c(N)nc(SCC(=O)c2ccc(Cl)cc2)c(C#N)c1-c1ccco1 | 595 nM | > 100000 nM | 2280 nM
45 | O=C1CC(c2ccccc2)CC2=C1C(c1cccc(Cl)c1Cl)Nc1ccccc1N2 (stereo not given) | 464 nM | > 78800 nM | 288 nM
46 | Cc1cc2cc(C3C(C#N)=C(N)Oc4c3ccc3ccccc43)c(Cl)nc2cc1Cl (stereo not given) | 629 nM | > 100000 nM | 240 nM
47 | OC1=C2C(=Nc3ccccc3SC2c2ccco2)c2ccccc21 (stereo not given) | 350 nM | 55300 nM | 251 nM
48 | Clc1ccc(Nc2nc(NCc3ccco3)c3ccccc3n2)cc1 | 92.4 nM | 15600 nM | 113 nM
49 | Cc1nc2c(C)cccc2c(O)c1CC=C(Cl)Cl | 609 nM | > 100000 nM | 1110 nM
50 | CCOC(=O)c1cnc2c(C)cccc2c1Nc1cccc(C(C)=O)c1 | 607 nM | > 100000 nM | 1020 nM
